From US20120303115A1 (priority 2011, published 2012)
Blank lines part the entries; values can stand above or below the compound they belong to.

Assays:
[1] = Protocol: Table 9, shown below, summarizes a number of injectable liquid formulations of paclitaxel utilizing combinations of ethanol, PEG 400 and water. Specifically, the formulations set forth in Table 9 were made and analyzed for their concentrations of its various constituents. The concentrations are determined by liquid chromatography and are presented as weight by volume figures. The concentration of ethanol is preferably two or less percent so as to avoid ethanol becoming an active ingredient in the formulation.
Another aqueous liquid or injectable formulation of paclitaxel is made utilizing ethanol, PEG 400 and water, and ethanol, Vitamin E TPGS, PEG400 and water. In making the first formulation, 100 mg of paclitaxel is added to 400 μl of ethanol in a pre-weighed 20 ml scintillation vial. The mixture of paclitaxel and ethanol is vortexed and heated in a 60 degree C. bath for ten minutes. Once the drug is completely solubilized, 20 ml of PEG 400 is then added to make the final paclitaxel concentration 5 mg/ml. […] In a separate experiment, a series of 20 ml scintillation vials containing Vitamin E TPGS are heated or warmed up in a 50 degree C. water bath for ten minutes. Concurrently, distilled water is also warmed in a 50 degree C. water bath. […]

[2] = Percent drug content change of coated cobalt-chromium stent, 0 to 12 weeks (FIG. 1); type: physicochemical; conditions: 0.02 weight percent BHT per total basecoat solids; sirolimus and polymer on 18 mm stent; 8 weeks and 12 weeks, ambient conditions (25° C.)
Excerpt: Referring to FIG. 1, there is illustrated in graphical format, the results of the same drug screening as described above with the solution applied to a cobalt-chromium, 18 mm stent. In this test, two sets of solution samples were utilized, one with sirolimus and polymer solution containing the antioxidant and one with sirolimus and polymer solution containing no antioxidant. The antioxidant utilized was 0.02 weight percent BHT per total basecoat solids. The test was utilized to determine the percent drug content change over a time period of 0 to 12 weeks under two conditions; namely, 40° C. with 75 percent relative humidity, and ambient conditions (25° C.).

[3] = Drug concentration in liquid formulations by liquid chromatography; type: physicochemical; conditions: water, Vitamin E TPGS as excipient, ethanol less than two percent
Protocol: Table 7, shown below, summarizes the concentrations of the excipient, the co-solvents and the drug for four different liquid formulations.
Another liquid formulation of sirolimus comprises water and ethanol as co-solvents and Vitamin E TPGS as the excipient. The liquid formulation was created utilizing the following process. Two hundred milligrams of sirolimus and two grams of ethanol were added to a pre-weighed twenty milliliter scintillation vial. The vial was vortexed and sonicated until the sirolimus was completely dissolved. Approximately six hundred milligrams of Vitamin E TPGS was then added to the solution of ethanol and sirolimus. The vial was vortexed again until a clear yellowish solution was obtained. Nitrogen gas was then used to reduce the amount of ethanol in the vial to approximately two hundred twenty-nine milligrams. In a separate vial, three hundred milligrams of Vitamin E TPGS was dissolved in eleven milliliters of purified water while undergoing vortexing. The Vitamin E TPGS and water solution was then added to the first vial containing the sirolimus, Vitamin E TPGS and ethanol. The first vial was then vortexed vigorously and continuously for three minutes. […] The foam gradually disappeared after sitting at room temperature.
An aqueous formulation of CCl-779, a sirolimus analog, is prepared utilizing ethanol, Vitamin E TPGS and water. […]

concentration relative to the solubility of paclitaxel in water [1]: about 1000 fold
paclitaxel concentration of true aqueous liquid formulations [1]: up to 2.5 mg/ml
Compound: CC(=O)O[C@H]1C(=O)[C@@]2(C)[C@H]([C@H](OC(=O)c3ccccc3)[C@]3(O)C[C@H](OC(=O)[C@H](O)[C@@H](NC(=O)c4ccccc4)c4ccccc4)C(C)=C1C3(C)C)[C@]1(OC(C)=O)CO[C@@H]1C[C@@H]2O [paclitaxel]

drug degradation (percent drug content change) [2]: lessens drug degradation
Compound: Cc1cc(C(C)(C)C)c(O)c(C(C)(C)C)c1 [BHT, butylated hydroxytoluene]

concentration in the final solution (HPLC assay) [3]: 15000 µg/mL
Compound: CCl-779
